In this assay the target is T1, mouse VISTA (mVISTA) (Mus musculus, UniProt Q9D659).
T1 construct: expressed in transfected cells; host or cells: Human embryonic kidney 293T cells
T1 sequence (Q9D659 33-308): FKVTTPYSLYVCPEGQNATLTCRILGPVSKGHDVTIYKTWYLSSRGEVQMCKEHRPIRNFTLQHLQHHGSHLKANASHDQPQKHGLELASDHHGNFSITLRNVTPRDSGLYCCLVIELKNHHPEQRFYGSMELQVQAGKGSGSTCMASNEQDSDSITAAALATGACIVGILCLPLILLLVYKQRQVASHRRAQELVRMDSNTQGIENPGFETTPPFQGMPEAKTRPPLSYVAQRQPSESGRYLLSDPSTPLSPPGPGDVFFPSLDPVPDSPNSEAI
In words: Cell-Based Binding High-Content Assay For mVISTA (HC CBA mVISTA). In a few lines:
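This high-content binding assay uses HEK293T cells expressing murine VISTA, measuring displacement of 2 nM biotinylated peptide by fluorescent streptavidin imaging. IC50 values come from four-parameter logistic fitting.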

The mark [1] stands for this setting: 293T cells expressing mouse VISTA, competition with biotinylated peptide (2 nM), read-out: HC CBA mVISTA IC50.
[2] abbreviates: cell-based binding high-content assay, mVISTA, the 16th table, read-out: HC CBA mVISTA IC50.
Setting [3] is: cell-based binding high-content assay, mVISTA, the 15th table, read-out: HC CBA mVISTA IC50.

Read-outs that look alike come from different tables or passages of the source. Starred links: 1 amine or outer side, 2 acyl side, 3 side chain; linkers in the order of their positions; H or OH if unused. Positions of bridges follow the written chain, without caps; N, C: chain ends. Non-standard residues stand in square brackets, D forms with d. Residues, ends and D or L forms follow the SMILES beside them. X1 = C=CCOc1ccccc1C[C@H](N[*:1])C(=O)[*:2]; Phe(3-CN) = N#Cc1cccc(C[C@H](N)C(=O)O)c1; Phe(3-Me) = Cc1cccc(C[C@H](N)C(=O)O)c1; γGlu = O=C(O)[C@H](CCC(=O)[*:2])N[*:1]; 2Nal = N[C@@H](Cc1ccc2ccccc2c1)C(=O)O; βAsp = O=C(O)[C@H](CC(=O)[*:2])N[*:1]; Cit = NC(=O)NCCC[C@H](N)C(=O)O; NMeL = CN[C@@H](CC(C)C)C(=O)O; Ahp(2) = CCCCC[C@H](N)C(=O)O; NMeNle = CCCC[C@H](NC)C(=O)O; Tle = CC(C)(C)[C@H](N)C(=O)O; NHexGly = CCCCCCNCC(=O)O; Nle = CCCC[C@H](N)C(=O)O; Orn = NCCC[C@H](N)C(=O)O; Aun = NCCCCCCCCCCC(=O)O; Aze = O=C(O)[C@@H]1CCN1; Abu = CC[C@H](N)C(=O)O; AEEA = NCCOCCOCC(=O)O

For `CCCCCCN1CC(=O)N[C@@H](Cc2ccc(O)cc2)C(=O)N[C@@H](CCCC)C(=O)N[C@@H](CC(=O)O)C(=O)N[C@@H](CCCNC(=N)N)C(=O)N[C@@H](CC(C)C)C(=O)N[C@@H](CCCCC)C(=O)N2CCC[C@H]2C(=O)N[C@@H](C(C)C)C(=O)N[C@@H](C(C)C)C(=O)N[C@H](C(=O)NCC(=O)O)CSCC(=O)N[C@@H](Cc2ccccc2)C(=O)N[C@@H](Cc2ccc(O)cc2)C(=O)N[C@@H](CC(=O)O)C1=O` [Example 1065] ({CH2CO}-FYD[NHexGly]Y[Nle]DRL[Ahp(2)]PVVCG-OH; thioether N-14), the IC50 (usually the concentration that inhibits the measured activity by half) under setting [1] came out at 15.6 nM.
The same measure, in the same setting: to `CCCCCCN1CC(=O)N[C@@H](Cc2ccc(O)cc2)C(=O)N[C@@H](CCCC)C(=O)N[C@@H](CC(=O)O)C(=O)N[C@@H](CCCNC(=N)N)C(=O)N[C@@H](CC(C)C)C(=O)N[C@@H](CCCCC)C(=O)N2CCC[C@H]2C(=O)N[C@@H](C(C)C)C(=O)N[C@@H](Cc2ccc(O)cc2)C(=O)N[C@H](C(=O)NCC(=O)O)CSCC(=O)N[C@@H](Cc2ccccc2)C(=O)N[C@@H](Cc2ccc(O)cc2)C(=O)N[C@@H](CC(=O)O)C1=O` [Example 1071] ({CH2CO}-FYD[NHexGly]Y[Nle]DRL[Ahp(2)]PVYCG-OH; thioether N-14) belongs 17.7 nM.
Regarding `CCCCCCN1CC(=O)N[C@@H](Cc2ccc(O)cc2)C(=O)N[C@@H](CC)C(=O)NCC(=O)N[C@@H](CCCNC(=N)N)C(=O)N[C@@H](CC(C)C)C(=O)N[C@@H](CCCCC)C(=O)N2CCC[C@H]2C(=O)N[C@@H](C(C)C)C(=O)N2CCC[C@H]2C(=O)N[C@H](C(=O)NCC(=O)O)CSCC(=O)N[C@@H](Cc2ccccc2)C(=O)N[C@@H](Cc2ccc(O)cc2)C(=O)N[C@@H](CC(=O)O)C1=O` [compound 1123] ({CH2CO}-FYD[NHexGly]Y[Abu]GRL[Ahp(2)]PVPCG-OH; thioether N-14), where the note is “read-out: HC CBA mVISTA IC50”, the IC50 is 25.4 nM.
For the compound `CCCCCCN1CC(=O)N[C@@H](Cc2ccc(O)cc2)C(=O)N[C@@H](CC(C)C)C(=O)NCC(=O)N[C@@H](CCCNC(=N)N)C(=O)N[C@@H](Cc2ccc(O)cc2)C(=O)N[C@@H](CCCCC)C(=O)N2CCC[C@H]2C(=O)N[C@@H](C(C)C)C(=O)N[C@@H](C(C)C)C(=O)N[C@H](C(=O)NCC(=O)O)CSCC(=O)N[C@@H](Cc2ccc3ccccc3c2)C(=O)N[C@@H](Cc2ccc(O)cc2)C(=O)N[C@@H](CC(=O)O)C1=O` [Ex 1299] ({CH2CO}-[2Nal]YD[NHexGly]YLGRY[Ahp(2)]PVVCG-OH; thioether N-14), under setting [2], the IC50 was 33.2 nM.
As for `CCCCCCN1CC(=O)N[C@@H](Cc2ccc(O)cc2)C(=O)N[C@@H](CC(C)C)C(=O)N[C@@H](CC(N)=O)C(=O)N[C@@H](CCCNC(=N)N)C(=O)N(C)[C@@H](CCCC)C(=O)N[C@@H](CCCCC)C(=O)N2CCC[C@H]2C(=O)N[C@@H](C(C)(C)C)C(=O)N[C@@H](CO)C(=O)N[C@H](C(=O)NCC(N)=O)CSCC(=O)N[C@@H](Cc2cccc(C#N)c2)C(=O)N[C@@H](Cc2ccc(O)cc2)C(=O)N[C@@H](CC(=O)O)C1=O` [compound 1210] ({CH2CO}-[Phe(3-CN)]YD[NHexGly]YLNR[NMeNle][Ahp(2)]P[Tle]SCG-NH2; thioether N-14), the IC50 (read-out: HC CBA mVISTA IC50) stood at 38.3 nM.
With `C=CCOc1ccccc1C[C@@H]1NC(=O)CSC[C@@H](C(=O)NCC(N)=O)NC(=O)[C@H](CO)NC(=O)[C@H](C(C)(C)C)NC(=O)[C@@H]2CCCN2C(=O)[C@H](CCCCC)NC(=O)[C@H](CCCC)N(C)C(=O)[C@H](CCCNC(=N)N)NC(=O)[C@H](CC(N)=O)NC(=O)[C@H](CC(C)C)NC(=O)[C@H](Cc2ccc(O)cc2)NC(=O)CN(CCCCCC)C(=O)[C@H](CC(=O)O)NC(=O)[C@H](Cc2ccc(O)cc2)NC1=O` [compound 1206] ({CH2CO}-[X1]YD[NHexGly]YLNR[NMeNle][Ahp(2)]P[Tle]SCG-NH2; thioether N-14), the IC50 (read-out: HC CBA mVISTA IC50) was found to be 28.2 nM.
Same read-out and setting: to `CCCCCCN1CC(=O)N[C@@H](Cc2ccc(O)cc2)C(=O)N[C@@H](CC(C)C)C(=O)N[C@@H](CC(N)=O)C(=O)N[C@@H](CCCNC(=N)N)C(=O)N(C)[C@@H](CC(C)C)C(=O)N[C@@H](CCCCC)C(=O)N2CCC[C@H]2C(=O)N[C@@H](C(C)(C)C)C(=O)N[C@@H](CC(=O)O)C(=O)N[C@H](C(=O)NCCOCCOCC(=O)N[C@@H](CCC(=O)NCCOCCOCC(=O)NCCCCCCCCCCC(=O)O)C(=O)O)CSCC(=O)N[C@@H](Cc2ccccc2)C(=O)N[C@@H](Cc2c[nH]c3ccccc23)C(=O)N[C@@H](CC(=O)O)C1=O` [compound 2269] ({CH2CO}-FWD[NHexGly]YLNR[NMeL][Ahp(2)]P[Tle]DC[AEEA][γGlu][AEEA][Aun]-OH; thioether N-14) belongs 28.2 nM.
Regarding `CCCCCCN1CC(=O)N[C@@H](Cc2ccc(O)cc2)C(=O)N[C@@H](CCCC)C(=O)N[C@@H](CC(=O)O)C(=O)N[C@@H](CCCN)C(=O)N[C@@H](CC(C)C)C(=O)N[C@@H](CCCCC)C(=O)N2CCC[C@H]2C(=O)N[C@@H](C(C)C)C(=O)N[C@@H](CC(=O)O)C(=O)N[C@H](C(=O)N[C@@H](CC(=O)O)C(N)=O)CSCC(=O)N[C@@H](Cc2ccc3ccccc3c2)C(=O)N[C@@H](Cc2c[nH]c3ccccc23)C(=O)N[C@@H](CC(=O)O)C1=O` [compound 1227] ({CH2CO}-[2Nal]WD[NHexGly]Y[Nle]D[Orn]L[Ahp(2)]PVDCD-NH2; thioether N-14), the 50% inhibitory concentration (IC50) under setting [3] came out at 32.2 nM.
For `CCCCCCN1CC(=O)N[C@@H](Cc2ccc(O)cc2)C(=O)N[C@@H](CC(C)C)C(=O)N[C@@H](CC(N)=O)C(=O)N[C@@H](CCCN)C(=O)N(C)[C@@H](CCCC)C(=O)N[C@@H](CCCCC)C(=O)N2CCC[C@H]2C(=O)N[C@@H](C(C)(C)C)C(=O)N[C@@H](C(C)C)C(=O)N[C@H](C(=O)N[C@@H](CC(=O)NCCOCCOCC(=O)N[C@@H](CC(=O)O)C(=O)NCCOCCOCC(=O)NCCCCCCCCCCC(=O)O)C(=O)O)CSCC(=O)N[C@@H](Cc2ccccc2)C(=O)N[C@@H](Cc2cccc(C)c2)C(=O)N[C@@H](CC(=O)O)C1=O` [compound 2072] ({CH2CO}-F[Phe(3-Me)]D[NHexGly]YLN[Orn][NMeNle][Ahp(2)]P[Tle]VC[βAsp][AEEA]D[AEEA][Aun]-OH; thioether N-14), the IC50 (cell-based binding high-content assay, mVISTA, read-out: HC CBA miPrISTA IC50) amounted to 21.1 nM.
For `CCCCCCN1CC(=O)N[C@@H](Cc2ccc(O)cc2)C(=O)N[C@@H](CCCC)C(=O)N[C@@H](CC(N)=O)C(=O)N[C@@H](CCCNC(=N)N)C(=O)N(C)[C@@H](CCCC)C(=O)N[C@@H](CCCCC)C(=O)N2CC[C@H]2C(=O)N[C@@H](C(C)(C)C)C(=O)N[C@@H](CO)C(=O)N[C@H](C(=O)N[C@@H](CC(=O)NCCOCCOCC(=O)NCCCCCCCCCCC(=O)O)C(=O)O)CSCC(=O)N[C@@H](Cc2ccccc2)C(=O)N[C@@H](Cc2c[nH]c3ccccc23)C(=O)N[C@@H](CC(=O)O)C1=O` [Example 2187] ({CH2CO}-FWD[NHexGly]Y[Nle]NR[NMeNle][Ahp(2)][Aze][Tle]SC[βAsp][AEEA][Aun]-OH; thioether N-14), under “read-out: HC CBA mVISTA IC50”, the IC50 was determined as 13.3 nM.
Regarding `CCCCCCN1CC(=O)N[C@@H](Cc2ccc(O)cc2)C(=O)N[C@@H](C(C)C)C(=O)NCC(=O)N[C@@H](CCCNC(N)=O)C(=O)N[C@@H](CC(C)C)C(=O)N[C@@H](CCCCC)C(=O)N2CCC[C@H]2C(=O)N[C@@H](C(C)C)C(=O)N[C@@H](CC(=O)O)C(=O)N[C@H](C(=O)N[C@@H](CO)C(N)=O)CSCC(=O)N[C@@H](Cc2ccc3ccccc3c2)C(=O)N[C@@H](Cc2ccc(O)cc2)C(=O)N[C@@H](CC(=O)O)C1=O` [Ex 1316] ({CH2CO}-[2Nal]YD[NHexGly]YVG[Cit]L[Ahp(2)]PVDCS-NH2; thioether N-14), under setting [2], the IC50 came to 10.6 nM.
Turning to `CCCCCCN1CC(=O)N[C@@H](Cc2ccc(O)cc2)C(=O)N[C@@H](CCCC)C(=O)N[C@@H](CC(=O)O)C(=O)N[C@@H](CCCNC(=N)N)C(=O)N[C@@H](CC(C)C)C(=O)N[C@@H](CCCCC)C(=O)N2CCC[C@H]2C(=O)N[C@@H](C(C)C)C(=O)N[C@@H](CC(=O)O)C(=O)N[C@H](C(=O)N[C@@H](CC(=O)O)C(N)=O)CSCC(=O)N[C@@H](Cc2ccc3ccccc3c2)C(=O)N[C@@H](Cc2c[nH]c3ccccc23)C(=O)N[C@@H](CC(=O)O)C1=O` [compound 1226] ({CH2CO}-[2Nal]WD[NHexGly]Y[Nle]DRL[Ahp(2)]PVDCD-NH2; thioether N-14), the IC50 under setting [3] was determined as 14.4 nM.
Consider `CCCCCCN1CC(=O)N[C@@H](Cc2ccc(O)cc2)C(=O)N[C@@H](CCCC)C(=O)N[C@@H](CC(=O)O)C(=O)N[C@@H](CCCNC(N)=O)C(=O)N(C)[C@@H](CCCC)C(=O)N[C@@H](CCCCC)C(=O)N2CCC[C@H]2C(=O)N[C@@H](C(C)C)C(=O)N[C@@H](CC(=O)O)C(=O)N[C@H](C(=O)N[C@@H](CC(=O)O)C(N)=O)CSCC(=O)N[C@@H](Cc2cccc(C)c2)C(=O)N[C@@H](Cc2c[nH]c3ccccc23)C(=O)N[C@@H](CC(=O)O)C1=O` [compound 1438] ({CH2CO}-[Phe(3-Me)]WD[NHexGly]Y[Nle]D[Cit][NMeNle][Ahp(2)]PVDCD-NH2; thioether N-14), for which the IC50 (the 19th table, scaffold drawing 22, read-out: HC CBA mVISTA IC50) was 22.4 nM.
For the compound `CCCCCCN1CC(=O)N[C@@H](Cc2ccc(O)cc2)C(=O)N[C@@H](C(C)C)C(=O)NCC(=O)N[C@@H](CCCNC(=N)N)C(=O)N[C@@H](CC(C)C)C(=O)N[C@@H](CCCCC)C(=O)N2CCC[C@H]2C(=O)N[C@@H](C(C)C)C(=O)N[C@@H](CO)C(=O)N[C@H](C(=O)NCC(N)=O)CSCC(=O)N[C@@H](Cc2ccccc2)C(=O)N[C@@H](Cc2ccc(O)cc2)C(=O)N[C@@H](CC(=O)O)C1=O` [Example 1054] ({CH2CO}-FYD[NHexGly]YVGRL[Ahp(2)]PVSCG-NH2; thioether N-14), the IC50 under setting [1] was determined as 29.7 nM.
